Earlier results on one compound are cited in patent US20080044468A1, “Processes For The Preparation Of Oral Dosage Formulations Of Modafinil” (priority 2002, published 2008).

The conditions of this data set: background statement.

On to `NC(=O)C[S+]([O-])C(c1ccccc1)c1ccccc1` (stereo not shown) [modafinil], for which the Solubility in water result is listed as “less than 1 mg/ml”.
